MIC data for ten molecules are collected here from ChEMBL document CHEMBL3044880, “Synthesis, NMR spectral studies and antimicrobial evaluation of some 2-(benzothiazol-2-yl)-1-(alkyl-2r,6c-diarylpiperidin-4-ylidine)hydrazine derivatives” (2013).

What all share (assay type): functional
The test system of one experiment is Cryptococcus neoformans. Put plainly: Antimicrobial activity against Cryptococcus neoformans assessed as growth inhibition after 72-96 hr by two-fold serial dilution method.
The subject of the next experiment is Aspergillus niger. Put plainly: Antimicrobial activity against Aspergillus niger assessed as growth inhibition after 72-96 hr by two-fold serial dilution method.
The next experiment concerns Fusarium oxysporum. Put plainly: Antimicrobial activity against Fusarium oxysporum assessed as growth inhibition after 72-96 hr by two-fold serial dilution method.
The subject of a further experiment is Candida albicans. Put plainly: Antimicrobial activity against Candida albicans assessed as growth inhibition by two-fold serial dilution method.
For the next experiment, the system named is Staphylococcus aureus. Put plainly: Antimicrobial activity against Staphylococcus aureus MTCC 96 assessed as growth inhibition after 24 hr by two-fold serial dilution method.
For the next experiment, the system named is Pseudomonas aeruginosa. Nature of the experiment: Antimicrobial activity against Pseudomonas aeruginosa MTCC 741 assessed as growth inhibition after 24 hr by two-fold serial dilution method. To be noted: MTCC 741, 24 h.
A further experiment concerns Bacillus subtilis. Nature of the experiment: Antimicrobial activity against Bacillus subtilis MTCC 121 assessed as growth inhibition after 24 hr by two-fold serial dilution method. The settings on record: MTCC 121, 24 h.
In the next experiment the test system is Escherichia coli. Nature of the experiment: Antimicrobial activity against Escherichia coli MTCC 443 assessed as growth inhibition after 24 hr by two-fold serial dilution method. The settings on record: MTCC 443, 24 h.
For the next experiment, the system named is Klebsiella pneumoniae. Put plainly: Antimicrobial activity against Klebsiella pneumoniae MTCC 2272 assessed as growth inhibition after 24 hr by two-fold serial dilution method. The settings on record: MTCC 2272, 24 h.
Another experiment has as its system Aspergillus flavus. Nature of the experiment: Antimicrobial activity against Aspergillus flavus assessed as growth inhibition after 72-96 hr by two-fold serial dilution method.

Structures are written as SMILES. Converted amounts (≈) assume the structure as drawn. The source made the active and inactive calls. The calls are words filed in the database; no cut-off is given here.

On to `CC1/C(=N/Nc2nc3ccccc3s2)CC(c2ccccc2)NC1c1ccccc1` (stereo not drawn), for which the MIC in the experiment on Cryptococcus neoformans was 200 µg/mL (≈ 485 µM); in the experiment on Aspergillus niger, 100 µg/mL (≈ 242 µM); with Fusarium oxysporum, 200 µg/mL (≈ 485 µM); in the experiment on Candida albicans, 100 µg/mL (≈ 242 µM); in the experiment with Staphylococcus aureus (MTCC 96, 24 h) it was 200 µg/mL (≈ 485 µM); in the experiment with Pseudomonas aeruginosa it was 200 µg/mL (≈ 485 µM). The MIC in the experiment on Bacillus subtilis is 100 µg/mL (≈ 242 µM); in the experiment with Escherichia coli, 25 µg/mL (≈ 60.6 µM); with Klebsiella pneumoniae, 100 µg/mL (≈ 242 µM).

With `c1ccc(C2CC(=NNc3nc4ccccc4s3)CC(c3ccccc3)N2)cc1` (stereo not drawn), the MIC with Aspergillus niger was 200 µg/mL (≈ 502 µM); in the experiment on Aspergillus flavus, 200 µg/mL (≈ 502 µM); in the experiment with Fusarium oxysporum, 200 µg/mL (≈ 502 µM); in the experiment on Candida albicans, 100 µg/mL (≈ 251 µM); with Pseudomonas aeruginosa, 200 µg/mL (≈ 502 µM); with Bacillus subtilis, 100 µg/mL (≈ 251 µM). For the same molecule, the minimum inhibitory concentration (MIC) with Escherichia coli and in the experiment on Klebsiella pneumoniae was 200 µg/mL (≈ 502 µM) each time. Also, the MIC result in the experiment on Staphylococcus aureus was “inactive”.

Consider `CCC1/C(=N/Nc2nc3ccccc3s2)CC(c2ccccc2)NC1c1ccccc1` (stereo not drawn), for which the MIC in the experiment on Cryptococcus neoformans is 200 µg/mL (≈ 469 µM); in the experiment with Aspergillus flavus, 100 µg/mL (≈ 234 µM); in the experiment on Fusarium oxysporum it was 100 µg/mL (≈ 234 µM); in the experiment with Candida albicans, 200 µg/mL (≈ 469 µM); in the experiment with Pseudomonas aeruginosa, 100 µg/mL (≈ 234 µM); with Bacillus subtilis, 200 µg/mL (≈ 469 µM). In the experiment with Klebsiella pneumoniae, the MIC worked out at 50 µg/mL (≈ 117 µM). Also, the MIC result in the experiment on Staphylococcus aureus was “inactive”.

`CN[C@@H]1[C@H](O[C@H]2[C@H](O[C@H]3[C@H](O)[C@@H](O)[C@H](N=C(N)N)[C@@H](O)[C@@H]3N=C(N)N)O[C@@H](C)[C@]2(O)C=O)O[C@@H](CO)[C@H](O)[C@H]1O` [STREPTOMYCIN]: the MIC is 50 µg/mL (≈ 86 µM) in the experiment on Staphylococcus aureus (MTCC 96, 24 h); 50 µg/mL (≈ 86 µM) in the experiment on Pseudomonas aeruginosa; 12.5 µg/mL (≈ 21.5 µM) with Bacillus subtilis; 50 µg/mL (≈ 86 µM) in the experiment with Escherichia coli; 20 µg/mL (≈ 34.4 µM) with Klebsiella pneumoniae.

Consider `CC1/C(=N/Nc2nc3ccccc3s2)CC(c2ccccc2Cl)NC1c1ccccc1Cl` (stereo not drawn), for which the MIC with Cryptococcus neoformans worked out at 100 µg/mL (≈ 208 µM); in the experiment on Aspergillus niger, 50 µg/mL (≈ 104 µM); in the experiment on Aspergillus flavus, 200 µg/mL (≈ 415 µM); in the experiment on Fusarium oxysporum, 100 µg/mL (≈ 208 µM); with Candida albicans, 200 µg/mL (≈ 415 µM); with Pseudomonas aeruginosa, 100 µg/mL (≈ 208 µM). For the same molecule, the MIC in the experiment on Bacillus subtilis was 100 µg/mL (≈ 208 µM); in the experiment on Escherichia coli, 200 µg/mL (≈ 415 µM); with Klebsiella pneumoniae, 100 µg/mL (≈ 208 µM). For the same molecule, the MIC entry with Staphylococcus aureus is “inactive”.

As to `C[C@@H]1[C@H](O)[C@@H](C)/C=C/C=C/C=C/C=C/C=C/C=C/C=C/[C@H](O[C@@H]2O[C@H](C)[C@@H](O)[C@H](N)[C@@H]2O)C[C@@H]2O[C@](O)(C[C@@H](O)C[C@@H](O)[C@H](O)CC[C@@H](O)C[C@@H](O)CC(=O)O[C@H]1C)C[C@H](O)[C@H]2C(=O)O` [AMPHOTERICIN B], the MIC in the experiment with Cryptococcus neoformans worked out at 25 µg/mL (≈ 27.1 µM); in the experiment with Aspergillus niger, 50 µg/mL (≈ 54.1 µM); in the experiment with Aspergillus flavus, 50 µg/mL (≈ 54.1 µM); in the experiment with Fusarium oxysporum it was 25 µg/mL (≈ 27.1 µM); in the experiment on Candida albicans, 25 µg/mL (≈ 27.1 µM).

Turning to `CC1/C(=N/Nc2nc3ccccc3s2)CC(c2ccc(Br)cc2)NC1c1ccc(Br)cc1` (stereo not drawn), the MIC is 100 µg/mL (≈ 175 µM) in the experiment with Cryptococcus neoformans; 200 µg/mL (≈ 351 µM) in the experiment on Aspergillus niger; 200 µg/mL (≈ 351 µM) in the experiment with Aspergillus flavus; 50 µg/mL (≈ 87.7 µM) in the experiment with Fusarium oxysporum; 200 µg/mL (≈ 351 µM) in the experiment with Candida albicans; 200 µg/mL (≈ 351 µM) with Pseudomonas aeruginosa. Moreover, the MIC in the experiment with Bacillus subtilis was 200 µg/mL (≈ 351 µM); in the experiment on Escherichia coli, 200 µg/mL (≈ 351 µM); with Klebsiella pneumoniae, 100 µg/mL (≈ 175 µM). In the experiment with Staphylococcus aureus, the MIC entry is “inactive”.

Turning to `COc1ccc(C2C/C(=N\Nc3nc4ccccc4s3)C(C)C(c3ccc(OC)cc3)N2)cc1` (stereo not drawn), the MIC entry in the experiment with Cryptococcus neoformans and with Fusarium oxysporum was “inactive” throughout. The MIC was 200 µg/mL (≈ 423 µM) with Aspergillus niger; 100 µg/mL (≈ 212 µM) with Aspergillus flavus; 100 µg/mL (≈ 212 µM) with Candida albicans; 100 µg/mL (≈ 212 µM) with Staphylococcus aureus (MTCC 96, 24 h); 200 µg/mL (≈ 423 µM) with Bacillus subtilis; 100 µg/mL (≈ 212 µM) with Escherichia coli. For the same molecule, in the experiment with Klebsiella pneumoniae, the MIC was found to be 50 µg/mL (≈ 106 µM).

As for `CC1/C(=N/Nc2nc3ccccc3s2)CC(c2ccc(F)cc2)NC1c1ccc(F)cc1` (stereo not drawn), the MIC was 200 µg/mL (≈ 446 µM) in the experiment on Cryptococcus neoformans; 100 µg/mL (≈ 223 µM) with Aspergillus niger; 100 µg/mL (≈ 223 µM) with Aspergillus flavus; 100 µg/mL (≈ 223 µM) with Fusarium oxysporum; 100 µg/mL (≈ 223 µM) with Candida albicans; 200 µg/mL (≈ 446 µM) in the experiment with Pseudomonas aeruginosa. The MIC with Bacillus subtilis turned out to be 100 µg/mL (≈ 223 µM); in the experiment on Klebsiella pneumoniae it was 25 µg/mL (≈ 55.7 µM). Also, in the experiment with Staphylococcus aureus, the MIC result was “inactive”.

`CC1/C(=N/Nc2nc3ccccc3s2)CC(c2ccc(Cl)cc2)NC1c1ccc(Cl)cc1` (stereo not drawn): the MIC in the experiment on Cryptococcus neoformans worked out at 200 µg/mL (≈ 415 µM); with Aspergillus niger, 100 µg/mL (≈ 208 µM); in the experiment on Aspergillus flavus, 50 µg/mL (≈ 104 µM); in the experiment with Fusarium oxysporum, 200 µg/mL (≈ 415 µM); in the experiment with Pseudomonas aeruginosa, 100 µg/mL (≈ 208 µM); in the experiment with Bacillus subtilis, 50 µg/mL (≈ 104 µM). For the same molecule, the MIC with Escherichia coli worked out at 25 µg/mL (≈ 51.9 µM); in the experiment on Klebsiella pneumoniae, 50 µg/mL (≈ 104 µM). Moreover, the MIC result in the experiment on Staphylococcus aureus is “inactive”.
